Test [1] has as its system 6-hydroxydopamine-lesioned rats (nigroneostriatal-lesioned). The test can be described thus: Turning behavior in 6-hydroxydopamine-lesioned rats (Table 2). The class given is in vivo, rat. The note with it: for Average No. of turns per rat: first 15 minutes after end of latency period. An excerpt:
In this test, nigroneostriatal-lesioned rats are employed, as prepared by the procedure of Ungerstedt and Arbuthnott, Brain Res, 24, 485 (1970). A compound having dopamine agonist activity causes the rats to turn in circles contralateral to the side of the lesion. After a latency period, which varies from compound to compound, the number of turns is counted over a 15-minute period.

For a further test, the system named is prolactin secretion. In words: Inhibition of prolactin secretion in reserpine-treated male rats (Table 1). The format is in vivo, rat (Sprague-Dawley). The note with it: 50 mcg/kg i.p., 1 h after treatment. The procedure:
As previously stated, the drugs of this invention as represented by formulas I and III above are D-2 dopamine agonists.
Adult male rats of the Sprague-Dawley strain weighing about 200 g. were housed in an air-conditioned room with controlled lighting (lights on 6 a.m.-8 p.m.) and fed lab chow and water ad libitum. Each rat received an intraperitoneal injection of 2.0 mg. of reserpine in aqueous suspension 18 hours before administration of the test drug. The purpose of the reserpine was to keep the rat prolactin levels uniformly elevated. The compound was dissolved in 10 percent ethanol, and injected intraperitoneally at doses of 0.017, 0.03, 0.17 and 0.3μ moles/kg. The compound was administered at each dose level to a group of 10 rats, and a control group of 10 intact males received an equivalent amount of 10 percent ethanol. One hour after treatment, all rats were killed by decapitation, and 150 μl aliquots of serum were assayed for prolactin.
The difference between the prolactin level of the treated rats and prolactin level of the control rats, divided by the prolactin level of the control rats, gives the percent inhibition of prolactin secretion attributable to the given dose. Inhibition percentages are given in Tables 1 and 2 below for compounds according to I or III above respectively. […]

`CCCN1CCC[C@H]2Cc3nc(N4CCCC4)sc3C[C@@H]21` (racemic) [n-Pr, 1-pyrrolidinyl, FB, Trans-(±), Trans-(±)-2-(1-pyrrolidinyl)-5-n-propyl-4,4a,5,6,7,8,8a,9-octahydrothiazolo[4,5-g]quinoline]: in test [1] (dose 1000 mcg/kg), the “% Rats exhibiting turning behaviour” value is listed as 100% and the “Average No. of turns per rat” value is 67 turns per rat.
In the case of `CCCN1CCC[C@H]2Cc3nc(Br)sc3C[C@@H]21` (racemic) [n-Pr, Br, 2HCl, Trans-(±), Trans-(±)-2-bromo-5-n-propyl-4,4a,5,6,7,8,8a,9-octahydrothiazolo[4,5-g]quinoline], in test [1] (dose 1000 mcg/kg), the “% Rats exhibiting turning behaviour” value worked out at 100% and the “Average No. of turns per rat” value turned out to be 42 turns per rat.
`CCCN1CCC[C@H]2Cc3ncsc3C[C@@H]21.Cl.Cl` (racemic) [n-Pr, H, 2HCl, trans-(±), trans-(±)-5-n-propyl-4,4a,5,6,7,8,8a,9-octahydrothiazolo[4,5-g]quinoline dihydrochloride]: the “% Rats exhibiting turning behaviour” value worked out at 25% in test [1] (dose 20 mcg/kg), 100% in test [1] (dose 100 mcg/kg) and 100% in test [1] (dose 1000 mcg/kg). In addition, the “Average No. of turns per rat” value in test [1] (dose 20 mcg/kg) is on record as 16 turns per rat; in test [1] (dose 100 mcg/kg), 44 turns per rat; in test [1] (dose 1000 mcg/kg), 100 turns per rat.
For the molecule `CCC[N+]1(C)CCCC2Cc3scnc3CC21.I.[I-]` (racemic) [n-Pr, H, HI methiodide, trans-(±), trans-(±)-5-n-propyl-4,4a,5,6,7,8,8a,9-octahydrothiazolo[4,5-g]quinolinium methiodide hydroiodide], in the test on prolactin secretion, the “Percent Inhibition of Prolactin Secretion” value is 30%.
With `CCCN1CCC[C@H]2Cc3nc(N(C)C)sc3C[C@@H]21` (racemic) [n-Pr, N(CH3)2, 2HCl, trans (±), trans-(±)-2-dimethylamino-5-n-propyl-4,4a,5,6,7,8,8a,9-octahydrothiazolo[4,5-g]quinoline], in test [1] (dose 1000 mcg/kg), the “% Rats exhibiting turning behaviour” value was 100% and the “Average No. of turns per rat” value worked out at 62 turns per rat.
For `Br.Br.CCCN1CCC[C@H]2Cc3nc(N)sc3C[C@@H]21` (racemic) [n-Pr, NH2, 2HBr, trans (±), trans-(±)-2-amino-5-n-propyl-4,4a,5,6,7,8,8a,9-octahydrothiazolo[4,5-g]quinoline dihydrobromide], in test [1] (dose 20 mcg/kg), the “% Rats exhibiting turning behaviour” value is 0%. Moreover, in test [1] (dose 100 mcg/kg), the “% Rats exhibiting turning behaviour” value amounted to 78% and the “Average No. of turns per rat” value turned out to be 51 turns per rat.
Take `CCCN1CCC[C@H]2Cc3nc(NC)sc3C[C@@H]21.Cl.Cl` (racemic) [n-Pr, NHCH3, 2HCl, trans (±), trans-(±)-2-methylamino-5-n-propyl-4,4a,5,6,7,8,8a,9-octahydrothiazolo[4,5-g]-quinoline dihydrochloride]: the “% Rats exhibiting turning behaviour” value is 75% in test [1] (dose 20 mcg/kg), 100% in test [1] (dose 100 mcg/kg) and 100% in test [1] (dose 1000 mcg/kg). In addition, the “Average No. of turns per rat” value came out at 27 turns per rat in test [1] (dose 20 mcg/kg), 80 turns per rat in test [1] (dose 100 mcg/kg) and 100 turns per rat in test [1] (dose 1000 mcg/kg).
In the case of `CCCN1CCC[C@H]2Cc3nc(NC(C)=O)sc3C[C@@H]21` (racemic) [n-Pr, NHCOCH3, FB, trans-(±), Trans-(±)-2-acetylamino-5-n-propyl-4,4a,5,6,7,8,8a,9-octahydrothiazolo[4,5-g]quinoline], in test [1] (dose 1000 mcg/kg), the “% Rats exhibiting turning behaviour” value came to 100% and the “Average No. of turns per rat” value was 91 turns per rat.
Regarding `CCCN1CCC[C@@H]2Cc3nc(N)sc3C[C@H]21` [n-Pr, NH2, 2HCl, trans-(-), 4aR,8aR-2-amino-5-n-propyl-4,4a,5,6,7,8,8a,9-octahydrothiazolo[4,5-g]quinoline], the results for the “% Rats exhibiting turning behaviour” value in test [1] (dose 20 mcg/kg), in test [1] (dose 100 mcg/kg) and in test [1] (dose 1000 mcg/kg) were 100%, 80% and 100%, respectively. Further, the figures for the “Average No. of turns per rat” value in test [1] (dose 20 mcg/kg), in test [1] (dose 100 mcg/kg) and in test [1] (dose 1000 mcg/kg) were 37 turns per rat, 102 turns per rat and 109 turns per rat, respectively.

The record behind these values is patent US4537893A, “Octahydrothiazolo[4,5-g]quinolines and use as prolactin secretion inhibitors” (Eli Lilly and Company, priority 1984, dated 1985).
